From patent US20020026053A1, “Novel 3-(substituted) -2- indolinones compounds and use thereof as inhibitors of protein kinase activity” (priority 1997, published 2002)

How the values were obtained:
PDGF-R = PDGF-R Assay (cellular ELISA, U1242 cells); type: cell-based; set-up: concentration or dose not given beside the values
In short: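 Cellular ELISA for receptor autophosphorylation: after 2 hr test-compound treatment of serum-free U1242 cells at 37°C, ligand is added for 5–10 min, cells are lysed (HNTG) and receptor captured by specific antibody. Anti-phosphotyrosine plus secondary antibody with ABTS colour read at 410/630 nm, compared with compound-free control cells.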

EGFR = biological target: T1, EGFR (Homo sapiens, UniProt P00533); experiment: Biochemical EGFR Assay; set-up: concentration or dose not given beside the values
T1 construct: endogenous in cells; host or cells: A431 cells (lysate, captured with SUMO1 anti-EGFR antibody)
T1 sequence (P00533 25-1210): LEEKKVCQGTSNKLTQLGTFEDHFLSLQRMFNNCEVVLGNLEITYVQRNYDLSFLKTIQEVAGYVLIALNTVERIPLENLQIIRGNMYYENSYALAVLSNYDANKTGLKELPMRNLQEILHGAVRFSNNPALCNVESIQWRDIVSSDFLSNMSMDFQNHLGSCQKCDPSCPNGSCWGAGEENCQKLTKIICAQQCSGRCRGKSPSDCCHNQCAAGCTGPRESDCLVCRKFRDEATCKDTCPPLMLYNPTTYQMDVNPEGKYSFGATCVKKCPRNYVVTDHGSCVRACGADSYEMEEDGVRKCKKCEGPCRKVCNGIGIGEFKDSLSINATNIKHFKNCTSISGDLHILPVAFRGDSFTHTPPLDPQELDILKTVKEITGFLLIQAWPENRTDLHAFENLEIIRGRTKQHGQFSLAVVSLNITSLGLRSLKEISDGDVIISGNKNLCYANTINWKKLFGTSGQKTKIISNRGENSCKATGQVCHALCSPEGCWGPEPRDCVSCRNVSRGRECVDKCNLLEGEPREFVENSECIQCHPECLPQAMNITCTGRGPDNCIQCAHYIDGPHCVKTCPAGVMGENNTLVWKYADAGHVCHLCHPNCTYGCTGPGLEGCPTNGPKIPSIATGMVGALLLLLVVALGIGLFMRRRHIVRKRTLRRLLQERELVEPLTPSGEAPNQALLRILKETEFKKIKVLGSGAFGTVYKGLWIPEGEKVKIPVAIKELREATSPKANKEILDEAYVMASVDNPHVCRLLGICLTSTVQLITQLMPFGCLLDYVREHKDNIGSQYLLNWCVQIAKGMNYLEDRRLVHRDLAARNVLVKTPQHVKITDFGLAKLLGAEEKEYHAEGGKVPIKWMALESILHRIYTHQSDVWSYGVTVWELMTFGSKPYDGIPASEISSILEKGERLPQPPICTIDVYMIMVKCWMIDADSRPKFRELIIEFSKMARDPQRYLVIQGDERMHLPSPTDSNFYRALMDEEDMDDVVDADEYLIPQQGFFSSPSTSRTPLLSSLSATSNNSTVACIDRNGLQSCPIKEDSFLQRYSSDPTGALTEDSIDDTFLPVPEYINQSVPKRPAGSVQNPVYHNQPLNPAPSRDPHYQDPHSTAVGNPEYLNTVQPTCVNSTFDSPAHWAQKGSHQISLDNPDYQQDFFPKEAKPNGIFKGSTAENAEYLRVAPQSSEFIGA
In short: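 Readout is ABTS absorbance at 410 nm after anti-phosphotyrosine and HRP-antibody detection of EGFR autophosphorylation. The kinase was immunocaptured from A431 lysate, exposed 30 min to test compound diluted 1:10 in TBS, then phosphorylated for 5 min with ATP/MnCl2 before an EDTA stop.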

Row | Structure (SMILES) | PDGF Kinase % Inhibition (P.119) (PDGF-R) | Biochem EGFR % Inhibition (P.167) (EGFR)
1 | O=C1Nc2ccc(S(=O)(=O)Nc3ccc(C(F)(F)F)cc3)cc2C1=Cc1ccc(Cl)cc1 [10736/E02] | 21.5% | 2.0%
2 | O=C1Nc2ccc(S(=O)(=O)Nc3ccc(C(F)(F)F)cc3)cc2C1=Cc1ccccc1C(F)(F)F [10736/E03] | 96.1% | 90.2%
3 | Cc1cccc(C=C2C(=O)Nc3ccc(S(=O)(=O)Nc4ccc(C(F)(F)F)cc4)cc32)c1 [10736/E04] | 24.6% | −17.2%
4 | Cc1ccc(C=C2C(=O)Nc3ccc(S(=O)(=O)Nc4ccc(C(F)(F)F)cc4)cc32)cc1 [10736/E05] | 18.5% | 17.0%
5 | O=C1Nc2ccc(S(=O)(=O)Nc3ccc(C(F)(F)F)cc3)cc2C1=Cc1cccc(Cl)c1 [10736/E06] | 10.6% | 47.3%
6 | O=C1Nc2ccc(S(=O)(=O)Nc3ccc(C(F)(F)F)cc3)cc2C1=Cc1cccc(F)c1 [10736/E07] | 18.5% | −26.7%
7 | O=C1Nc2ccc(S(=O)(=O)Nc3ccc(C(F)(F)F)cc3)cc2C1=Cc1ccccc1F [10736/E08] | 7.9% | −47.3%
8 | CCc1ccc(C=C2C(=O)Nc3ccc(S(=O)(=O)Nc4ccc(C(F)(F)F)cc4)cc32)cc1 [10736/E09] | −0.4% | −40.1%
9 | COc1cccc(C=C2C(=O)Nc3ccc(S(=O)(=O)Nc4ccc(C(F)(F)F)cc4)cc32)c1 [10736/E10] | 26.8% | −24.0%
10 | O=C1Nc2ccc(S(=O)(=O)Nc3ccc(C(F)(F)F)cc3)cc2C1=Cc1ccccc1Cl [10736/E11] | 0.9% | −74.1%
11 | O=C1Nc2ccc(S(=O)(=O)N3CCOCC3)cc2C1=Cc1ccc(Cl)cc1 [10736/F02] | −14.4% | −4.5%
12 | O=C1Nc2ccc(S(=O)(=O)N3CCOCC3)cc2C1=Cc1ccccc1C(F)(F)F [10736/F03] | −3.0% | 94.0%
13 | Cc1cccc(C=C2C(=O)Nc3ccc(S(=O)(=O)N4CCOCC4)cc32)c1 [10736/F04] | 3.6% | −21.7%
14 | Cc1ccc(C=C2C(=O)Nc3ccc(S(=O)(=O)N4CCOCC4)cc32)cc1 [10736/F05] | −4.8% | −6.0%
15 | O=C1Nc2ccc(S(=O)(=O)N3CCOCC3)cc2C1=Cc1cccc(Cl)c1 [10736/F06] | 12.3% | 25.1%
16 | O=C1Nc2ccc(S(=O)(=O)N3CCOCC3)cc2C1=Cc1cccc(F)c1 [10736/F07] | −4.3% | −12.1%
17 | O=C1Nc2ccc(S(=O)(=O)N3CCOCC3)cc2C1=Cc1ccccc1F [10736/F08] | −20.1% | −2.8%
18 | CCc1ccc(C=C2C(=O)Nc3ccc(S(=O)(=O)N4CCOCC4)cc32)cc1 [10736/F09] | 2.7% | 6.3%
